# Publication PMC5209880, “Mobilization of hematopoietic stem cells with the novel CXCR4 antagonist POL6326 (balixafortide) in healthy volunteers—results of a dose escalation trial” (Journal of Translational Medicine, 2017)
# Read-outs that look alike come from different tables or passages of the source.
# Key:
# [1] = test system: healthy male volunteers; test: Phase I dose escalation trial: safety and tolerability, adverse events
# Method: Additional eligibility (inclusion) criteria for treatment with balixafortide were the same as for G-CSF mobilized stem cell donation. Between G-CSF mobilization/HSPC donation and study participation there was a wash-out period of at least 6 weeks.
# Study drug was administered on an in-patient basis in the phase I clinical trial unit of Goethe University Medical Center, the ‘Klinisches Studienzentrum Rhein-Main’. Volunteers were discharged 24 h after treatment, to return for a follow-up appointment 8–14 days thereafter.
# (§1) A total of 27 volunteers were treated with balixafortide. A treatment consisted of a single intravenous infusion of balixafortide in normal saline at doses of 500, 1000, 1500, 2000 and 2500 μg/kg, based on actual weight, followed by sequential clinical and blood analyses (see below). Initially conceived as a classical 3 + 3 dose escalation design, the volunteers were assigned to four groups defined by increasing dose levels of balixafortide (500, 1000, 1500, and 2000 μg/kg) administered by constant rate infusion at over 2 h. Subsequently, amendments were added to test additional modalities: Group 6 received 2500 μg/kg under the same conditions. Volunteers assigned to Group 5 received a dose level of 2000 μg/kg by an continuously increasing infusion rate (ramp-infusion instead of constant rate infusion) applied over 2 h. In group 7, a dose level of 1000 μg/kg was infused over 1 h at a constant rate and compared (intra-individually) to the 2 h infusion given with an interval of ≥4 weeks. A second balixafortide treatment was furthermore tested in volunteers from groups 2, 3 and 6 with groups 2 and 3 receiving 2500 μg/kg and group 6 given 1500 μg/kg as the second infusion. […] Thus, to allow for intra-individual comparison, 12 donors received a second dose of balixafortide (2 h constant infusion rate for all) after a minimum wash-out period of 4 weeks.
# Vital signs were monitored immediately prior to and in the first 24 h after the start of the infusion of balixafortide; serial blood samples were drawn for biochemical safety profiling and pharmacokinetic/pharmacodynamic analyses. Given the cationic nature of the compound [17] the risk of local or systemic symptoms of histamine release was identified and anti-histamine treatment was proposed (per protocol) in case of such symptoms. […] Volunteers who received prophylactic or therapeutic anti-histamine medication are listed accordingly in Table 1.
# [2] = test system: leukocytes; test: Mobilization of mature hematopoietic cells (blood counts, flow cytometry); assay type: in vivo, human
# Method: (§2) Blood samples were collected at the indicated times (Figs. 1, 2, 3, 4, 5 and 6) and kept at room temperature (maximum 2–3 h.) until immediately before analysis. Complete blood counts were assessed with the Sysmex XT1800 hematology analyzer (Norderstedt, Germany). CD34+ cells were quantified using the single platform flow cytometry analysis with the SCE Kit [Becton–Dickinson (BD), Heidelberg, Germany] according to the manufacturer’s instructions and ISHAGE guidelines. In addition, multi-parametric flow cytometric analyses were performed to quantify co-mobilized mature cell subsets such as T (CD45+ CD3+), B (CD45+ CD19+) and NK (CD45+ CD56+ 16+) cells (Multitest, T cells, BD), T cell subpopulations (CD45+ CD3+ CD4+/CD8+, Multitest, TBNL cells, BD) and monocytes (CD45+ CD14+, all from BD). In addition, plasmacytoid dendritic cell progenitors (pro-pDCs) were identified as CD45dimCD34dimCD45RA + CD123high (all moABs from BD). Lyse-no-wash protocols were used in conjunction with BD counting beads for direct cell enumeration for CD34+ cells and T cell subsets; all other cell concentrations were calculated using frequencies relative to directly enumerated cell species, such as CD34+, CD45+ or CD3+ cells.
# [3] = test system: healthy male volunteers; test: Subjective rating questionnaire of G-CSF vs. balixafortide at follow-up; conditions: number of responses
# [4] = test system: CD34+ cells (HSPC); test: Mobilization of CD34+ cells, single platform flow cytometry of blood; assay type: in vivo, human
# Method: A total of 27 volunteers were treated with balixafortide.
# as §2
# [5] = Pharmacokinetics from serial plasma samples after intravenous infusion
# Method: as §1
# Plasma samples were collected at the indicated times and kept frozen until immediately before analysis.
# Serial plasma samples were assayed for balixafortide concentrations and pharmacokinetic parameters were calculated using Phoenix WinNonlin 6.4.
# [6] = test system: patients receiving a plerixafor-mobilized graft; conditions: recipients of a plerixafor-mobilized graft; cited from earlier work
# [7] = test system: CD34+ cells; conditions: cited from earlier work
# Text: The ability of CXCR4 antagonists to rapidly dislodge stem cells from the marrow has been recognized for many years. Previously studied compounds were neither universally well tolerated nor very potent. The only currently approved CXCR4 antagonist plerixafor mobilized a median of 16 CD34+ cells per µL when administered alone (without G-CSF) in healthy donors, which is barely sufficient to generate a normal-sized graft in two apheresis sessions. || The comparator agent in our study was G-CSF given in split doses as is routine practice in our center; the rationale is twofold: more efficient mobilization and potentially better tolerability. […] Thus the advantage in efficiency of single-dose G-CSF vs. balixafortide at the doses tested here would be les ...
# [8] = test system: CFU-C (HSPC); test: Circulating colony-forming units-culture (CFU-C) in methylcellulose media; assay type: in vivo, human; conditions: all doses, mean ± SEM
# Text: Circulating colony-forming units-culture (CFU-C) were quantified by plating aliquots of lysed peripheral blood in commercial cytokine-replete methylcellulose media (StemMACS HSC-CFU lite with Epo, human, Miltenyi Biotec GmbH, Bergisch-Gladbach, Germany).
# [9] = test system: healthy male volunteers; conditions: in vivo
# [10] = test system: plasmacytoid dendritic cell progenitors (pro-pDCs); test: Mobilization of plasmacytoid dendritic cell progenitors (pro-pDCs), flow cytometry; assay type: in vivo, human; conditions: balixafortide 1st treatment, constant infusion rate, 2 h; n = 21, mean ± SEM
# Method: as §2
# [11] = 500 μg/kg, 2 h const. infusion, n = 3 volunteers
# [12] = 1000 μg/kg, 1 h const. infusion, n = 3 volunteers
# [13] = 1000 μg/kg, 2 h const. infusion, n = 7 volunteers
# [14] = 1500 μg/kg, 2 h const. infusion, n = 7 volunteers
# [15] = 2000 μg/kg, 2 h const. infusion, n = 6 volunteers
# [16] = 2000 μg/kg, 2 h ramp infusion, n = 3 volunteers
# [17] = 2500 μg/kg, 2 h const. infusion, n = 10 volunteers
molecule,measurement,setting,value
C[C@@H]1NC(=O)[C@H](Cc2c[nH]cn2)NC(=O)[C@H](Cc2ccc(O)cc2)NC(=O)[C@@H]2CCCN2C(=O)[C@H]2CCCN2C(=O)[C@H](CCCCN)NC(=O)[C@H](CCC(N)=O)NC(=O)[C@H](Cc2ccc(O)cc2)NC(=O)[C@@H]2CSSC[C@H](NC1=O)C(=O)N[C@@H](CO)C(=O)N[C@@H](C)C(=O)N1CCC[C@@H]1C(=O)N[C@@H](CCN)C(=O)N[C@@H](CCCNC(=N)N)C(=O)N[C@@H](Cc1ccc(O)cc1)C(=O)N2 [balixafortide],"Mild skin reactions such as flushing, urticaria or local itching, volunteers reporting",[1]; 500 µg/kg,1/3
same,Infusion site erythema (volunteers with AE),[1]; [11],1
same,Volunteers with AE,[1]; [11],1
same,"Mild skin reactions such as flushing, urticaria or local itching, volunteers reporting",[1]; 1000 µg/kg,4/10
same,Pruritus (volunteers with AE),[1]; [12],1
same,Volunteers with AE,[1]; [12],1
same,BP increase (volunteers with AE),[1]; [13],2
same,Infusion site pruritus (volunteers with AE),[1]; [13],1
same,Pruritus (volunteers with AE),[1]; [13],2
same,Volunteers with AE,[1]; [13],5
same,"Mild skin reactions such as flushing, urticaria or local itching, volunteers reporting",[1]; 1500 µg/kg,2/7
same,Erythema (volunteers with AE),[1]; [14],1
same,Infusion site erythema (volunteers with AE),[1]; [14],2
same,Infusion site irritation (volunteers with AE),[1]; [14],1
same,Infusion site pruritus (volunteers with AE),[1]; [14],1
same,Pruritus (volunteers with AE),[1]; [14],1
same,Urticaria (volunteers with AE),[1]; [14],1
same,Volunteers with AE,[1]; [14],2
same,"Mild skin reactions such as flushing, urticaria or local itching, volunteers reporting",[1]; 2000 µg/kg,8/9
same,Blood CK increased (volunteers with AE),[1]; [15],2
same,Bone pain (volunteers with AE),[1]; [15],1
same,Erythema (volunteers with AE),[1]; [15],4
same,Flushing (volunteers with AE),[1]; [15],1
same,Hypoasthesia (volunteers with AE),[1]; [15],1
same,Pruritus (volunteers with AE),[1]; [15],4
same,Urticaria (volunteers with AE),[1]; [15],1
same,Volunteers with AE,[1]; [15],6
same,Flushing (volunteers with AE),[1]; [16],1
same,Pruritus (volunteers with AE),[1]; [16],2
same,Volunteers with AE,[1]; [16],2
same,"Mild skin reactions such as flushing, urticaria or local itching, volunteers reporting",[1]; 2500 µg/kg,7/10
same,Erythema (volunteers with AE),[1]; [17],7
same,Feeling hot (volunteers with AE),[1]; [17],1
same,Headache (volunteers with AE),[1]; [17],1
same,Hypoasthesia (volunteers with AE),[1]; [17],1
same,Hypoasthesia oral (volunteers with AE),[1]; [17],2
same,Muscle tightness (volunteers with AE),[1]; [17],1
same,Throat tightness (volunteers with AE),[1]; [17],1
same,Vertigo (volunteers with AE),[1]; [17],1
same,Volunteers with AE,[1]; [17],7
same,Severe adverse events (SAEs),"[1]; all doses 500-2500 µg/kg, 27 volunteers, 39 doses",No severe adverse events (SAEs) were observed
same,"Systolic blood pressure reading of >150 mmHg, considered possibly related to study drug",[1]; whole trial,2 subjects
same,"Unexplained elevation in serum creatinine kinase, considered possibly related to study drug",[1]; whole trial,2 subjects
same,Mature cells mobilized relative to G-CSF,[2]; doses of 1500-2500 µg/kg,approximately half as many mature cells as G-CSF
same,White blood counts (WBCs) reached,"[2]; doses of 1500-2500 µg/kg, mean ± SEM",25.3 ± 1.4 × 10*3 WBC/µL
same,Side effects in the course of treatment: Abdominal pain,[3],0
same,Side effects in the course of treatment: Bone pain,[3],0
same,Side effects in the course of treatment: Fatigue,[3],4
same,Side effects in the course of treatment: Fever,[3],0
same,Side effects in the course of treatment: Flu-like symptoms,[3],0
same,Side effects in the course of treatment: Headache,[3],1
same,Side effects in the course of treatment: Insomnia,[3],1
same,Side effects in the course of treatment: Palpitation,[3],0
same,Side effects in the course of treatment: Skin reactions,[3],13
same,Side effects in the course of treatment: Sweating,[3],1
same,Side effects in the course of treatment: Vomiting,[3],1
same,Time of peak CD34+ mobilization after the end of the infusion,[4]; 500 µg/kg,1 h
same,Time of peak CD34+ mobilization after the end of the infusion,[4]; doses higher than 500 µg/kg,approximately 4 h
same,Mean peak mobilization of CD34+ cells,"[4]; doses of 1500-2500 µg/kg, single i.v. infusion, mean ± SEM",38.2 ± 2.8 CD34+ cells/µL
same,Volume of distribution,"[5]; human plasma, i.v. infusion 500-2500 µg/kg, Phoenix WinNonlin 6.4, approximately",0.5 to 0.6 L/kg
same,Clearance,"[5]; human, i.v. infusion",almost equal to the glomerular filtration rate
same,Dose dependence of Cmax and AUC,"[5]; human, i.v. infusion 500-2500 µg/kg, n = 3-6",dose linearity for both Cmax and AUC
same,half-life,"[5]; human, plasma, iv",~5 h
"c1cc(CN2CCCNCCNCCCNCC2)ccc1CN1CCCNCCNCCCNCC1 [plerixafor, reference compound]",Patients who developed acute GvHD 3° or 4°,[6],1/20
same,Median CD34+ cells mobilized,[7]; administered alone (without G-CSF) in healthy donors,16 CD34+ cells per µL
"filgrastim (protein, UniProt P09919 31-207, looked up, filgrastim, N-terminal Met, cytokine, standard hematopoietic stem and progenitor cell mobilizing agent) Granulocyte …: TPLGPASSLPQSFLLKCLEQVRKIQGDGAALQEKLVSECATYKLCHPEELVLLGHSLGIPWAPLSSCPSQALQLAGCLSQLHSGLFLYQGLLQALEGISPELGPTLDTLQLDVADFATTIWQQMEELGMAPALQPTQGAMPAFASAFQRRAGGVLVASHLQSFLEVSYRVLRHLAQP",Clonogenicity: mobilized CD34+ cells per 1 CFU-C,[8],3.2 ± 0.2 CD34+ cells
same,Average CD34+ cell counts,[7]; same daily dose as a single injection,mid-sixties’ range
same,Ratio between T-lymphocytes and CD34+ cells in mobilized blood,[2]; mean ± SEM,26.2 ± 1.98 :1
same,Side effects in the course of treatment: Abdominal pain,[9],2
same,Side effects in the course of treatment: Bone pain,[9],24
same,Side effects in the course of treatment: Fatigue,[9],11
same,Side effects in the course of treatment: Fever,[9],2
same,Side effects in the course of treatment: Flu-like symptoms,[9],21
same,Side effects in the course of treatment: Headache,[9],11
same,Side effects in the course of treatment: Insomnia,[9],0
same,Side effects in the course of treatment: Palpitation,[9],1
same,Side effects in the course of treatment: Skin reactions,[9],1
same,Side effects in the course of treatment: Sweating,[9],0
same,Side effects in the course of treatment: Vomiting,[9],0
same,Mobilization of pDC progenitors (% of CD34+CD45dim),[10],2.18±0.34%
same,Mobilization response of CD34+ cells,"[4]; 5-day course of filgrastim 7.5-10 µg/kg per day in 2 divided doses, mean ± SEM",121.6 ± 8.6 CD34+ cells/μL
same,"Effectiveness of G-CSF regimen relative to balixafortide, CD34+ mobilization","[4]; intra-individual comparison, balixafortide 1500-2500 µg/kg, on average",about three times as effective
